Reference: patent US20170107207A1, “AMINOPYRAZOLONE DERIVATIVE” (DAIICHI SANKYO COMPANY, LIMITED, priority 2014, published 2017)
pIC50: −log10 of the molar value. Structures can show the parent of a compound that is named as a salt.

Columns and labels:
[1] = system: human lymphoma cell line RAMOS cells; assay: Cell growth inhibition test using RAMOS cell, ATP assay (CellTiter-Glo); type: cell-based; conditions: Homo sapiens, Ramos, 72 h, cultured 3 days, 50% growth inhibition concentration
Experimental: A cell growth inhibition test was carried out by treating human lymphoma cell line RAMOS cells with a test compound for a given period and then counting the number of viable cells by MTT assay or CellTiter-Glo Luminescent Cell Viability Assay (manufactured by Promega Corp.; hereinafter, referred to as ATP assay).
RAMOS cells were inoculated at 4000 cells/40 μL/well to a 384-well plate containing the compound prepared in advance at predetermined concentrations. The cells thus inoculated were cultured at 37° C. for 3 days under 5% CO2. In order to measure a cell survival rate, CellTiter-Glo Reagent was added in an amount corresponding to 1/4 of the amount of the culture solution at the day of cell inoculation and at the final culture date and stirred at room temperature for 2 minutes. Then, luminescence intensity was measured using a plate reader. The cell survival rate was calculated according to the expression given below.
The number of viable cells and luminescence intensity have been confirmed to correlate with each other. Therefore, the rate of cell growth was calculated according to the following expression: Rate of cell growth (T/C %) of a test compound-supplemented well=100×[(B−C)/(A−C)] wherein A represents the luminescence intensity (final culture date) of a test compound-free well; B represents the luminescence intensity (final culture date) of a test compound-containing well; and C represents the luminescence intensity (day of cell inoculation) of a well at the start of contact of the cells with the test compound.
T/C % at each concentration of the test compound was determined. The concentration at which the test compound offered 50% growth rate was calculated as a GI50 value from the growth rates at two points interpolating 50% and the concentrations, and is shown in Table 56.

[2] = biological target: T1, TIP48/TIP49 complex (Homo sapiens, UniProt Q9Y230+Q9Y265); assay: ATPase assay of TIP48/TIP49 complex (ADP-Glo); type: biochemical; conditions: concentration at which the ATPase activity was inhibited by 50%
T1 construct: made in house; host or cells: E. coli
T1 sequence (Q9Y230 whole entry): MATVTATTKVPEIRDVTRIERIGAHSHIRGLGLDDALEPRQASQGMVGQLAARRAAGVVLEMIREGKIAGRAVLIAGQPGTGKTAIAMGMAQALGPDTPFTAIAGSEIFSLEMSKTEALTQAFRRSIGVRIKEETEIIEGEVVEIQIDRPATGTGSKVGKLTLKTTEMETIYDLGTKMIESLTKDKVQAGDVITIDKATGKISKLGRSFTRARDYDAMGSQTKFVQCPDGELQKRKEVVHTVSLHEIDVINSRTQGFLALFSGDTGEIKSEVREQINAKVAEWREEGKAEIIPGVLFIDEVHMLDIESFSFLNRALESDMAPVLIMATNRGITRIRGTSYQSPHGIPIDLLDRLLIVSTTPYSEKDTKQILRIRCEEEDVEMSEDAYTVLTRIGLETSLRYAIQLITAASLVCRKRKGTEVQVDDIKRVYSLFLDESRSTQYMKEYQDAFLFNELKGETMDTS
T1 sequence (Q9Y265 whole entry): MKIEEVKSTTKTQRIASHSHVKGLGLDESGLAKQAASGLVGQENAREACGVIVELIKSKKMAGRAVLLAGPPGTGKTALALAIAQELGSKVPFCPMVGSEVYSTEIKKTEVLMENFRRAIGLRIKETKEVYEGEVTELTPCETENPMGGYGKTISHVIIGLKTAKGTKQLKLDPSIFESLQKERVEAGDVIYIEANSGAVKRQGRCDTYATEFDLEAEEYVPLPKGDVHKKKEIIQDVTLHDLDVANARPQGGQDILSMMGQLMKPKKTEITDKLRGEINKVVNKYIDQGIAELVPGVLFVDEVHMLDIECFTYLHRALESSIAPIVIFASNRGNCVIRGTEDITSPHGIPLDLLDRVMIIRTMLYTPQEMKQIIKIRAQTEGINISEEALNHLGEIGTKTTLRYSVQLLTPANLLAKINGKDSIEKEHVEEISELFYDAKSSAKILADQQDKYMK
Source text: The ATPase activity of the TIP48/TIP49 complex can be measured by use of an ATPase assay described below in Test Examples 1 and 2. The ATPase activity of the TIP48/TIP49 complex can be measured, as described below in the Test Examples, for example, by using recombinant human TIP48 and TIP49 proteins (hereinafter, referred to as rTIP48 and rTIP49) and ATP in the presence or absence of a test compound and measuring the amount of ADP formed through hydrolysis by the ATPase activity of the TIP48/TIP49 complex, using ADP-Glo. Alternatively, the ATPase activity of the TIP48/TIP49 complex can be measured by a method described in, for example, J. Mol. Biol. 366, 172-179 (2007).
An ATPase assay of a TIP48/TIP49 complex was conducted using rTIP48 and rTIP49. Human TIP48 and TIP49 DNAs were purchased from Open Biosystems. Human TIP48 and TIP49 cDNAs cloned by PCR using the purchased DNAs were each integrated into plasmids for expression in E. coli and expressed in E. coli to obtain rTIP48 and rTIP49.
A test compound was dissolved at 10 mM using DMSO. The solution was diluted to 10 concentrations as 4-fold serial dilutions from 10 mM using DMSO.
A 2×assay buffer (100 mM Tris-HCl, pH 7.5, 100 mM NaCl, 40 mM MgCl2, 2 mM DTT, 20 μM ATP, and 0.2 mg/mL BSA) was dispensed at 24.5 μL/well to a 384-well assay plate.
Test compound solutions were dispensed thereto at 1 μL/well. Subsequently, the solution in each well was mixed using a plate mixer.
rTIP48 and rTIP49 were diluted to a concentration of 50 μg/mL using sterilized water. The diluted solution was dispensed at 24.5 μL/well to the 384-well assay plate. Subsequently, the solution in each well was mixed using a plate mixer (final concentration: 24.5 μg/mL) (concentration of each test compound solution: 200 μM, 50 μM, 12.5 μM, 3.12 μM, 0.78 μM, 0.20 μM, 0.049 μM, 0.012 μM, 0.003 μM, and 0.0007 μM; DMSO concentration: 2%).
After the mixing using the plate mixer, the assay plate was left standing at room temperature for 1.5 hours.
5 μL of the solution in each well was transferred to a white assay plate, and ADP-Glo Reagent from ADP-Glo Kinase Assay (Promega Corp., catalog No. V9101) was dispensed thereto at 5 μL/well. After completion of the reaction, the plate was left standing at room temperature for 40 minutes. Kinase Detection Reagent was further dispensed thereto at 5 μL/well, and the plate was left standing at room temperature for 30 minutes. Then, luminescence intensity was measured using a plate reader.
The ATPase inhibitory activity was calculated according to the expression given below.
The luminescence intensity of a well supplemented with the test compound and the TIP48/TIP49 complex was defined as A. The luminescence intensity of a well supplemented with only the TIP48/TIP49 complex was defined as B. The luminescence intensity of a well supplemented with neither the test compound nor the TIP48/TIP49 complex was defined as C. The ratio between the test compound-supplemented group and the test compound-nonsupplemented group (T/C value) was determined according to the following calculation expression:
The dose-response curve was calculated using GraphPad Prism 4 from the concentration of each of the serially diluted test compounds and the ATPase inhibitory activity (%) at this concentration.

Compound	GI50 [1] [nM]	pIC50 [2]
CCOc1ncc(Cl)cc1C(=O)NCC(C)(C)CC(=O)Nc1c(C[C@H](C)N(C)C)n(C)n(-c2ccccc2)c1=O [Example 53, 5-Chloro-N-[4-({5-[(2S)-2-(dimethylamino)propyl]-1-methyl-3-oxo-2-phenyl-2,3-dihydro-1H-pyrazol-4-yl}amino)-2,2-dimethyl-4-oxobutyl]-2-ethoxypyridine-3-carboxamide]	240	7.20
CCOc1ccc(Cl)cc1C(=O)NCC(C)(C)CC(=O)Nc1c(CC(C)(C)N)n(C)n(-c2ccccc2)c1=O [Example 55, N-(4-{[5-(2-Amino-2-methylpropyl)-1-methyl-3-oxo-2-phenyl-2,3-dihydro-1H-pyrazol-4-yl]amino}-2,2-dimethyl-4-oxobutyl)-5-chloro-2-ethoxybenzamide]	170	7.37
CCOc1ncc(Cl)cc1C(=O)NCC(C)(C)CC(=O)Nc1c(CC(C)(C)N(C)C)n(C)n(-c2ccccc2)c1=O [Example 57, 5-Chloro-N-[4-({5-[2-(dimethylamino)-2-methylpropyl]-1-methyl-3-oxo-2-phenyl-2,3-dihydro-1H-pyrazol-4-yl}amino)-2,2-dimethyl-4-oxobutyl]-2-ethoxypyridine-3-carboxamide]	190	7.15
CCOc1ccc(Cl)cc1C(=O)NCC(C)(C)CC(=O)Nc1c(CC(C)(C)NC)n(C)n(-c2ccccc2)c1=O [Example 59, 5-Chloro-N-[2,2-dimethyl-4-({1-methyl-5-[2-methyl-2-(methylamino)propyl]-3-oxo-2-phenyl-2,3-dihydro-1H-pyrazol-4-yl}amino)-4-oxobutyl]-2-ethoxybenzamide]	150	7.47
CCOc1ncc(Br)cc1C(=O)NCC(C)(C)CC(=O)Nc1c(CC(C)(C)NC)n(C)n(-c2ccccc2)c1=O [Example 60, 5-Bromo-N-[2,2-dimethyl-4-({1-methyl-5-[2-methyl-2-(methylamino)propyl]-3-oxo-2-phenyl-2,3-dihydro-1H-pyrazol-4-yl}amino)-4-oxobutyl]-2-ethoxypyridine-3-carboxamide]	370	7.03
CCOc1ccc(Cl)cc1C(=O)NCC(CF)(CF)CC(=O)Nc1c(CCN(C)C)n(C)n(-c2ccccc2)c1=O [Example 62, 5-Chloro-N-[4-({5-[2-(dimethylamino)ethyl]-1-methyl-3-oxo-2-phenylpyrazolo-4-yl}amino)-2,2-bis(fluoromethyl)-4-oxobutyl]-2-ethoxybenzamide]	500	6.82
CCOc1ccc(Cl)cc1C(=O)NCC(C)(C)CC(=O)Nc1c(C(C)CN(C)C)n(C)n(-c2ccccc2)c1=O (stereo not drawn) [Example 66, 5-Chloro-N-[4-({5-[2-(dimethylamino)-1-methylethyl]-1-methyl-3-oxo-2-phenyl-2,3-dihydro-1H-pyrazol-4-yl}amino)-2,2-dimethyl-4-oxobutyl]-2-ethoxybenzamide]	160	7.24
CCOc1ccc(Cl)cc1C(=O)NCC(C)(C)CC(=O)Nc1c([C@@H](C)CN(C)C)n(C)n(-c2ccccc2)c1=O [Example 67, 5-Chloro-N-[4-({5-[(1S)-2-(dimethylamino)-1-methylethyl]-1-methyl-3-oxo-2-phenyl-2,3-dihydro-1H-pyrazol-4-yl}amino)-2,2-dimethyl-4-oxobutyl]-2-ethoxybenzamide]	150	7.44
CCOc1cc(F)c(Cl)cc1C(=O)NCC(C)(C)CC(=O)Nc1c(C(C)CN(C)C)n(C)n(-c2ccccc2)c1=O (stereo not drawn) [Example 69, 5-Chloro-N-[4-({5-[2-(dimethylamino)-1-methylethyl]-1-methyl-3-oxo-2-phenyl-2,3-dihydro-1H-pyrazol-4-yl}amino)-2,2-dimethyl-4-oxobutyl]-2-ethoxy-4-fluorobenzamide]	160	7.19

The next lines start with the values.

GI50 [1] [nM]	pIC50 [2]	Compound
140	7.03	Cc1cc2cc(Cl)cc(C(=O)NCC(C)(C)CC(=O)Nc3c(C[C@H](C)N(C)C)n(C)n(-c4ccccc4)c3=O)c2o1 [Example 54, 5-Chloro-N-[4-({5-[(2S)-2-(dimethylamino)propyl]-1-methyl-3-oxo-2-phenyl-2,3-dihydro-1H-pyrazol-4-yl}amino)-2,2-dimethyl-4-oxobutyl]-2-methylbenzofuran-7-carboxamide]
120	7.40	CCOc1ccc(Cl)cc1C(=O)NCC(C)(C)CC(=O)Nc1c(CC(C)(C)N(C)C)n(C)n(-c2ccccc2)c1=O [Example 56, 5-Chloro-N-[4-({5-[2-(dimethylamino)-2-methylpropyl]-1-methyl-3-oxo-2-phenyl-2,3-dihydro-1H-pyrazol-4-yl}amino)-2,2-dimethyl-4-oxobutyl]-2-ethoxybenzamide]
110	7.24	Cc1cc2cc(Cl)cc(C(=O)NCC(C)(C)CC(=O)Nc3c(CC(C)(C)N)n(C)n(-c4ccccc4)c3=O)c2o1 [Example 58, N-(4-{[5-(2-amino-2-methylpropyl)-1-methyl-3-oxo-2-phenyl-2,3-dihyro-1H-pyrazol-4-yl]amino}-2,2-dimethyl-4-oxobutyl)-5-chloro-2-methylbenzofuran-7-carboxamide]
390	7.28	CNC(C)(C)Cc1c(NC(=O)CC(C)(C)CNC(=O)c2cc(Cl)cc3cc(C)oc23)c(=O)n(-c2ccccc2)n1C [Example 61, 5-Chloro-N-[2,2-dimethyl-4-({1-methyl-5-[2-methyl-2-(methylamino)propyl]-3-oxo-2-phenyl-2,3-dihydro-1H-pyrazol-4-yl}amino)-4-oxobutyl]-2-methylbenzofuran-7-carboxamide]
190	7.00	CCOc1cc(F)c(Cl)cc1C(=O)NCC(C)(C)CC(=O)Nc1c(CCCN(C)C)n(C)n(-c2ccccc2)c1=O [Example 64, 5-Chloro-N-[4-({5-[3-(dimethylamino)propyl]-1-methyl-3-oxo-2-phenyl-2,3-dihydro-1H-pyrazol-4-yl}amino)-2,2-dimethyl-4-oxobutyl]-2-ethoxy-4-fluorobenzamide monohydrochloride]
200	7.36	Cc1cc2cc(Cl)cc(C(=O)NCC(C)(C)CC(=O)Nc3c(CCCN(C)C)n(C)n(-c4ccccc4)c3=O)c2o1 [Example 65, 5-Chloro-N-[4-({5-[3-(dimethylamino)propyl]-1-methyl-3-oxo-2-phenyl-2,3-dihydro-1H-pyrazol-4-yl}amino)-2,2-dimethyl-4-oxobutyl]-2-methylbenzofuran-7-carboxamide]
